# Assay results published in patent publication US10336788B2, “Inhibition of cardiac fibrosis in myocardial infarction” (Moerae Matrix, Inc., priority 2014, dated 2019).
# No end group written: not given here.
# What was measured:
# C57BL/6 mice = test: Histological analysis of fibrosis (Masson's trichrome, Aperio) of hearts 14 days post-AMI; assay type: in vivo, mouse
# Procedure: Mice were euthanized by isoflurane and cervical dislocation at day 14, fixed in fresh 4% paraformaldehyde for 24 hours, paraffin embedded, processed, and stained with standard hematoxylin and eosin (H&E) and Masson's trichrome (MT). Starting at the ligation with fully faced tissue, 14-15 levels were cut on each block at 50 μm (one slide for H&E, one for MT, and 3 unstained; 50 μm skipped and then repeated). […] The area of fibrosis was analyzed in 3-4 blindly chosen hearts, each heart at 14-15 levels (point of ligation to apex), 3 sections at each level. Analysis of collagen was performed blinded to treatment on these 42-45 sections per heart. Slides were scanned using an Aperio Scanscope (Aperio Technologies, Vista, Calif.) and analyzed using Aperio Imagescope. The Algorithm Positive Pixel Count v9 was used to measure the Masson's trichrome staining of collagen (representing both fibrosis and collagen in extracellular matrix), hue value (0.66) and hue width (0.1) were used analyzed the tissue outlined using the pen tool. Each section was analyzed and exported. The N positive/N total value (representing the % collagen of the entire section) was used to determine a weighted average for each slide.
# Hearts were obtained from AMI mice and histologically analyzed for fibrosis in Masson's trichrome stained sections in a systemic manner (FIG. 2A).
# [1] = tested on: abdominal adhesions post-surgery; details: Ward et al. 2011; cited from earlier work
# [2] = tested on: primary cardiac fibroblasts; test: LDH release assay in primary cardiac fibroblasts (1% hypoxia or normoxia); assay type: cell-based, rat
# Procedure: H9C2 is a myoblast cell line derived from rat myocardium obtained from ATCC® (CRL-1446, ATCC, Manassas, Va.) and cultured according to the recommended protocols. Briefly, cells were maintained at 37° C. with 5% CO2 in DMEM supplemented with 10% fetal bovine serum and antibiotics (100 U/ml penicillin, […] streptomycin) and split at a ratio of 1:4 using 0.05% trypsin every 36 hours. […]
# Cells were rinsed in PMS and grown in DMEM (cat. #11966-025, Gibco) for 2 hours prior to initiating hypoxia (simulated ischemia). […] Three different time points were adopted for each of the three cell lines according to the severity of cell death under hypoxia determined by LDH release: for H9C2 cell line: 8 hr; 16 hr; 24 hr; for HL-1 cell line: 4 hr; 8 hr; 12 hr; […]; 32 hr; 48 hr.
# Cell death was first determined using an LDH release assay (cat. #630117, Clontech), according to the manufacturer's instructions. […] Caspase 3/7 activity was next determined using a commercial Caspase 3/7 activity kit (Cat. #G8091, Promega, Madison, Wis. 53711) in a 384 well plate (Cat. #781903, Greiner bio-one) according to the manufacturer's instructions. […] The resulting cell lysates (25 μl, with 0.6 ug total protein) and Caspase-Glo 3/7 Reagent were added to each well in a 1:1 ratio and the luminescence was read (CLARIOstar, BMG LABTECH GmbH). […]
sequence,measurement,setting,value
YARAAARQARAKALARQLGVAA [MMI-0100],histology at the site of infarction (myocyte sparing within scar),"C57BL/6 mice; AMI mice treated with MMI-0100, AMI alone generally all fibrotic",islands of viable myocytes
same,fibrosis distant to the site of ischemia (histological sections),C57BL/6 mice; AMI mice treated with MMI-0100 vs AMI,not found to the same extent
same,less fibrosis than untreated AMI mice,"C57BL/6 mice; AMI mice, 50 μg/kg/day from 30 minutes post-AMI, day 14",50%
same,"fibrosis, area staining blue (Masson's trichrome collagen)","C57BL/6 mice; AMI mice, 50 μg/kg/day from 30 minutes post-AMI, day 14, untreated AMI ~21%",~11%
same,abdominal adhesions post-surgery,[1],inhibiting
same,LDH release,"[2]; 16, 32, and 48 hours of hypoxia",significantly enhanced
same,LDH release in normoxic conditions,"[2]; absence of hypoxia, 4 hours (so in the source)",did not enhance LDH release
